Measurements published in patent US10047051B2, “Substituted pyridines and method of use” (AbbVie S.á{acute over (.)}r.l., priority 2015, dated 2018).
pEC50: −log10 of the molar value.

Key:
CFTR G551D mutant = biological target: T1, CFTR G551D mutant (Homo sapiens, UniProt P13569, G551D); test: YFP-halide influx assay for the CFTR-G551D mutation (HEK293 cells); assay type: cell-based; conditions: forskolin 10.67 μM
T1 construct: expressed in transfected cells; host or cells: HEK293 cells, reverse transfection with plasmids
Procedure, shortened: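 HEK293 cells reverse-transfected with CFTR G551D and halide-sensitive YFP (H148Q/I152L/F47L), expressed 24 h at 37 °C. YFP fluorescence quenching recorded for 7 s after I⁻ injection. Response = 1−F/F0; EC50 derived from 1−F/F0 vs compound concentration.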

CFTR ΔF508 mutant = biological target: T2, CFTR ΔF508 mutant (Homo sapiens, UniProt P13569, DEL508-508); test: YFP-halide influx assay for the CFTR-ΔF508 mutation (CFBE41o- cells); assay type: cell-based; conditions: forskolin 10.67 μM; for pEC50: from (1−F/F0) vs concentration plot
T2 construct: expressed in transfected cells; host or cells: CFBE41o- cells, adenoviral transduction
Procedure, shortened: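 CFBE41o- cells transduced with adenovirus expressing CFTR ΔF508 and halide-sensitive YFP H148Q/I152L/F47L, then held 24 h at 27° C or with a CFTR modulator 24 h at 37° C. Iodide-induced quench recorded 2 min; EC50 from (1−F/F0) at 36 s versus concentration.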

T1 sequence (P13569 whole entry G551D): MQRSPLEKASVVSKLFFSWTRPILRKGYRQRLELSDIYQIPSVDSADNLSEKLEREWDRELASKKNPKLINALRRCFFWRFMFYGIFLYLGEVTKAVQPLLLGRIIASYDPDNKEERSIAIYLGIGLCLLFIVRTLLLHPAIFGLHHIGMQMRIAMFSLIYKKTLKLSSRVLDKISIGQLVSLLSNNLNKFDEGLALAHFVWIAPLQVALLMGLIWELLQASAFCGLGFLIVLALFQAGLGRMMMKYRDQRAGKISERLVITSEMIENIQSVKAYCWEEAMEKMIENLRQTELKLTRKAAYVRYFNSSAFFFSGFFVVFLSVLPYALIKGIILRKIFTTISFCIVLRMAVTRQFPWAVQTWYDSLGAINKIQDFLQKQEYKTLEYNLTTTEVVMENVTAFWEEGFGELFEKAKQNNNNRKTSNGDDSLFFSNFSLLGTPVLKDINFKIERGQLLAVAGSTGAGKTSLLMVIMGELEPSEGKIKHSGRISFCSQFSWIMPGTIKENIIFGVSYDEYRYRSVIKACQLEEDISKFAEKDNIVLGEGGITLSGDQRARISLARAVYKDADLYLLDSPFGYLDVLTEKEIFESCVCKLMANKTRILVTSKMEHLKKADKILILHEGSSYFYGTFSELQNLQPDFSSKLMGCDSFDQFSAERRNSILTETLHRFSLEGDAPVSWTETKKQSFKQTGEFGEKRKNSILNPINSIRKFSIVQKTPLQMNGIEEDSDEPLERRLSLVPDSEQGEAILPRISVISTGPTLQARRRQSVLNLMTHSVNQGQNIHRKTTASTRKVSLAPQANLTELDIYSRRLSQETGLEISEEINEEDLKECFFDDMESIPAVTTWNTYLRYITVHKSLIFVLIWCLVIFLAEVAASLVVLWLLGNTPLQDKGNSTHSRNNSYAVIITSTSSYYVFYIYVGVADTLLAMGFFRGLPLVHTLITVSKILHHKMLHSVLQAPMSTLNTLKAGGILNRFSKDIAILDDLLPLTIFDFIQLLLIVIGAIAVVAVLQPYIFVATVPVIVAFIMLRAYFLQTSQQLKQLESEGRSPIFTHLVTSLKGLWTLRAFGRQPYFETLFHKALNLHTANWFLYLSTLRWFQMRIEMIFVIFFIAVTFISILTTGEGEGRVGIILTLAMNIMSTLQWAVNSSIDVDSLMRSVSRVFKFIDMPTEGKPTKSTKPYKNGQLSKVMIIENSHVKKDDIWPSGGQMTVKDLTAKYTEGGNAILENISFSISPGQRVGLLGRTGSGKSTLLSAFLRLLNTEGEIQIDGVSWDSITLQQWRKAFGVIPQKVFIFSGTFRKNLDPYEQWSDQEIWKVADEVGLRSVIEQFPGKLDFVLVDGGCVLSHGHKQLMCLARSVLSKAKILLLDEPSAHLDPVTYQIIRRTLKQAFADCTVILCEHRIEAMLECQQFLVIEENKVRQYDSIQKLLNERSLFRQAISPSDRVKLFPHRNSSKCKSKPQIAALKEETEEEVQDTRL
T2 sequence (P13569 with tags, fused parts or gaps DEL508-508): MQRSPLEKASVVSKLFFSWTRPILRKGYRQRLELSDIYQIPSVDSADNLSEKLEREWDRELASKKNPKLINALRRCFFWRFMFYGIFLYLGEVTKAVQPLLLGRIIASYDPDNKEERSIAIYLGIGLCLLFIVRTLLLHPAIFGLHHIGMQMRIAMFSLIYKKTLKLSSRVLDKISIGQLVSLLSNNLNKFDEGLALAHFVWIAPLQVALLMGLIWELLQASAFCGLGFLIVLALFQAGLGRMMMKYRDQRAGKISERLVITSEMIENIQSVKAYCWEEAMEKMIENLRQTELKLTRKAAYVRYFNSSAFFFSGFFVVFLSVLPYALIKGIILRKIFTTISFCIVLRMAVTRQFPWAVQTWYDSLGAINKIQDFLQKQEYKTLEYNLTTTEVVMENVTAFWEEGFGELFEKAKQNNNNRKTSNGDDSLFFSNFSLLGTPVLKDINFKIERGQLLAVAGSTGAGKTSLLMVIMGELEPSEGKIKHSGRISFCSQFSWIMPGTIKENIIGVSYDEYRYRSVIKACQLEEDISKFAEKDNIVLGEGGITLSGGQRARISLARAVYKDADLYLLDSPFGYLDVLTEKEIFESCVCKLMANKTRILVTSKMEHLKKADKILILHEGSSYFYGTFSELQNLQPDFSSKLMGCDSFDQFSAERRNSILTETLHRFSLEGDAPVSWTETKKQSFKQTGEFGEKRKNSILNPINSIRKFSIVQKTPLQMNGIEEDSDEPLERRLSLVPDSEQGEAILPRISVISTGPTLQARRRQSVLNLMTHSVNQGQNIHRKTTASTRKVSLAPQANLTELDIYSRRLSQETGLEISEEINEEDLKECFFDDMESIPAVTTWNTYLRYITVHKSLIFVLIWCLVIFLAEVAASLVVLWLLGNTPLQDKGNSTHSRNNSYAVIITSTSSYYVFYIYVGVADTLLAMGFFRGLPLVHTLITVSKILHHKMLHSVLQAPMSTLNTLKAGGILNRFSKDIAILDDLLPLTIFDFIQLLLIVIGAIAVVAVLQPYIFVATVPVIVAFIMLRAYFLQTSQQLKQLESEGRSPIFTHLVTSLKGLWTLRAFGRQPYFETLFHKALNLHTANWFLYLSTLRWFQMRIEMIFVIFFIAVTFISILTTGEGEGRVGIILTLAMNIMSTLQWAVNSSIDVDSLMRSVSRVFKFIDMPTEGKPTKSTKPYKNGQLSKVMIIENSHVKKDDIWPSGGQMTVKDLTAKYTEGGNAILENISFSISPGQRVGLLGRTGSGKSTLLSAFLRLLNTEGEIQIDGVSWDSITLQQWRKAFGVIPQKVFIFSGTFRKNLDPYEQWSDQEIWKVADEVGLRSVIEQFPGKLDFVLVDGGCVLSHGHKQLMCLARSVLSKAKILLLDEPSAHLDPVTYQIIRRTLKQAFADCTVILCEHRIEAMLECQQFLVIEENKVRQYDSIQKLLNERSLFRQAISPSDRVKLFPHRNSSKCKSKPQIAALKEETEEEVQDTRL

SMILES	% Activation (CFTR G551D mutant) [%]	pEC50 (CFTR G551D mutant)	% Activation (CFTR ΔF508 mutant) [%]	pEC50 (CFTR ΔF508 mutant)
COCC1(C)CN(C(=O)c2ncc(S(=O)(=O)c3ccc(C(F)(F)F)cc3)cc2N)C1 [Compound 232, (3-amino-5-{[4-(trifluoromethyl)phenyl]sulfonyl}pyridin-2-yl)[3-(methoxymethyl)-3-methylazetidin-1-yl]methanone]	66.0	5.83	94.5	7.16
C[C@H]1CCCN1S(=O)(=O)c1cnc(C(=O)N2CC(O)C2)c(N)c1 [Compound 272, (3-amino-5-{[(2S)-2-methylpyrrolidin-1-yl]sulfonyl}pyridin-2-yl) (3-hydroxyazetidin-1-yl)methanone]	2.8	< 5.30	82.0	< 6.48
Nc1cc(S(=O)(=O)N2CCC(F)(F)C2)cnc1C(=O)NCC(O)C(F)(F)F (stereo not shown) [Compound 186, 3-amino-5-[(3,3-difluoropyrrolidin-1-yl)sulfonyl]-N-(3,3,3-trifluoro-2-hydroxypropyl)pyridine-2-carboxamide]	49.9	< 5.48	108.2	7.52
Nc1cc(S(=O)(=O)c2ccc(OC(F)(F)F)cc2)cnc1C(=O)NCCN1CCOCC1 [Compound 9, 3-amino-N-[2-(morpholin-4-yl)ethyl]-5-{[4-(trifluoromethoxy)phenyl]sulfonyl}pyridine-2-carboxamide]	59.5	< 5.48	97.5	6.79
C[C@H](O)CNC(=O)c1nc(NC2CC2)c(S(=O)(=O)c2ccc(OC(F)(F)F)cc2)cc1N [Compound 285, 3-amino-6-(cyclopropylamino)-N-[(2S)-2-hydroxypropyl]-5-{[4-(trifluoromethoxy)phenyl]sulfonyl}pyridine-2-carboxamide]	52.5	6.11	86.7	8.38
COCCCNC(=O)c1ncc(S(=O)(=O)c2ccc(C(F)(F)F)cc2)cc1N [Compound 222, 3-amino-N-(3-methoxypropyl)-5-{[4-(trifluoromethyl)phenyl]sulfonyl}pyridine-2-carboxamide]	48.4	6.09	108.7	7.39
Nc1cc(S(=O)(=O)c2ccc(OC(F)(F)F)cc2)cnc1C(=O)NCCC1OCCO1 [Compound 147, 3-amino-N-[2-(1,3-dioxolan-2-yl)ethyl]-5-{[4-(trifluoromethoxy)phenyl]sulfonyl}pyridine-2-carboxamide]	69.0	5.89	105.5	7.39
Nc1cc(S(=O)(=O)c2ccc(OC(F)(F)F)cc2)cnc1C(=O)NC[C@@H](O)COCC1CC1 [Compound 251, 3-amino-N-[(2R)-3-(cyclopropylmethoxy)-2-hydroxypropyl]-5-{[4-(trifluoromethoxy)phenyl]sulfonyl}pyridine-2-carboxamide]	93.3	6.04	110.0	7.79
CC1(O)CN(C(=O)c2ncc(S(=O)(=O)c3ccc(OC(F)(F)F)cc3)cc2N)C1 [Compound 89, (3-amino-5-{[4-(trifluoromethoxy)phenyl]sulfonyl}pyridin-2-yl)(3-hydroxy-3-methylazetidin-1-yl)methanone]	53.6	< 5.48	99.6	8.16
CC(C)NC(=O)CNC(=O)c1ncc(S(=O)(=O)N2CCC[C@@H]2C)cc1N [Compound 270, 3-amino-5-{[(2S)-2-methylpyrrolidin-1-yl]sulfonyl}-N-[2-oxo-2-(propan-2-ylamino)ethyl]pyridine-2-carboxamide]	23.8	< 5.00	100.0	6.84
COCCN(C)S(=O)(=O)c1cnc(C(=O)NC[C@H](C)O)c(N)c1 [Compound 277, 3-amino-N-[(2S)-2-hydroxypropyl]-5-[(2-methoxyethyl)(methyl)sulfamoyl]pyridine-2-carboxamide]	0.8	< 5.00	65.5	< 6.18
C[C@H]1CCCN1S(=O)(=O)c1cnc(C(=O)N2CC(C(N)=O)C2)c(N)c1 [Compound 271, 1-[(3-amino-5-{[(2S)-2-methylpyrrolidin-1-yl]sulfonyl}pyridin-2-yl)carbonyl]azetidine-3-carboxamide]	2.5	< 5.00	20.4	< 5.70
Nc1cc(S(=O)(=O)c2ccc(C(F)(F)F)cc2)cnc1C(=O)N1CC(C(F)(F)F)C1 [Compound 157, (3-amino-5-{[4-(trifluoromethyl)phenyl]sulfonyl}pyridin-2-yl)[3-(trifluoromethyl)azetidin-1-yl]methanone]	28.8	< 5.00	101.2	7.47
CN(Cc1ccc(F)cc1F)S(=O)(=O)c1cnc(C(=O)NCC(O)C(F)(F)F)c(N)c1 (stereo not shown) [Compound 137, 3-amino-5-[(2,4-difluorobenzyl)(methyl)sulfamoyl]-N-(3,3,3-trifluoro-2-hydroxypropyl)pyridine-2-carboxamide]	69.6	6.38	110.7	8.43
Nc1cc(S(=O)(=O)c2ccc(OC(F)(F)F)cc2)cnc1C(=O)NC1CCOC1 (stereo not shown) [Compound 127, 3-amino-N-(tetrahydrofuran-3-yl)-5-{[4-(trifluoromethoxy)phenyl]sulfonyl}pyridine-2-carboxamide]	61.2	5.73	107.0	7.08
Cc1ccc(S(=O)(=O)c2cnc(C(=O)NCC(O)C(F)(F)F)c(N)c2)cc1 (stereo not shown) [Compound 245, 3-amino-5-[(4-methylphenyl)sulfonyl]-N-(3,3,3-trifluoro-2-hydroxypropyl)pyridine-2-carboxamide]	80.8	6.40	114.0	8.25
Nc1cc(S(=O)(=O)c2ccc(F)cc2)c(Br)nc1C(=O)NC[C@@H](O)C(F)(F)F [Compound 250, 3-amino-6-bromo-5-[(4-fluorophenyl)sulfonyl]-N-[(2R)-3,3,3-trifluoro-2-hydroxypropyl]pyridine-2-carboxamide]	90.4	6.34	111.5	9.00
Nc1cc(S(=O)(=O)c2ccc(OC(F)(F)F)cc2)cnc1C(=O)N1CC[C@@H](F)C1 [Compound 204, (3-amino-5-{[4-(trifluoromethoxy)phenyl]sulfonyl}pyridin-2-yl)[(3R)-3-fluoropyrrolidin-1-yl]methanone]	73.9	< 5.48	92.5	6.75
COCCOCC(O)CNC(=O)c1ncc(S(=O)(=O)c2ccc(C(F)(F)F)cc2)cc1N (stereo not shown) [Compound 221, 3-amino-N-[2-hydroxy-3-(2-methoxyethoxy)propyl]-5-{[4-(trifluoromethyl)phenyl]sulfonyl}pyridine-2-carboxamide]	55.6	5.74	101.7	7.26
